Data: PubChem BioAssay AID1918993 (Molecular Pharmacology Branch, DTP, NCI, 2023)
Values joined by “and” are separate entries in the source; they are usually repeats but may differ in a detail not shown here. Identical values can stand only once. Blank lines part the entries; values can stand above or below the compound they belong to.

Test system: 233499-124-R-J3-PDC complex spheroid growth
Assay: Anticancer human tumor 233499-124-R-J3-PDC patient-derived colon adenocarcinoma cell line growth inhibition [AhR]
Settings: for viability, T/C: stronger effect = lower value
From the text: Multicellular complex tumor spheroid response to aryl hydrocarbon receptor antagonists in combination with a variety of drugs and investigational agents in selected tumor cell lines
The current study was undertaken to assess response to aryl hydrocarbon receptor antagonists in combination with standard-of-care drugs and investigational agents in solid tumor complex spheroid models. Complex spheroids include a stromal component modeled by human endothelial cells (HUVEC) and fibroblasts modeled by human mesenchymal stem cells (MSCs). The concentration ranges selected for each drug and investigational agent were based upon clinically achievable concentrations if the clinical Cmax of the agent was known.
Compounds. The drugs and investigational agents: BAY 2416964 (NSC825713), GNF351 (NSC835774), CH-223191 (NSC835775), CPI-455 (NSC825282), aza-TdCyd (NSC777586), decitabine (NSC127716), belinostat (NSC758774), entinostat (NSC756642), pevonedistat (NSC761192), tazemetostat (NSC777109), talazoparib (NSC765396), olaparib (NSC753686), selinexor (NSC780203), nedisertib (M3814, NSC802822), bortezomib (NSC756655), venetoclax (NSC766270), doxorubicin (NSC123127), elimusertib (BAY189344, NSC800525), ceralasertib (AZD6738, NSC777638), TAK-243 (NSC785004), alisertib (NSC759677), etoposide (NSC141540), topotecan (NSC609699), eribulin (NSC707389), gemcitabine (NSC613327), carboplatin (NSC241240), cisplatin (NSC119875), and SN-38 (NSC673596) were obtained from the National Cancer Institute (NCI) Developmental Therapeutics Program Chemical Repository (32). The FDA-approved anticancer drug set is available from the Developmental Therapeutics Program at https://dtp.cancer.gov/organization/dscb/obtaining/available plates.htm. […] The stock solutions were prepared in dimethyl sulfoxide (DMSO, Sigma-Aldrich, St. Louis, MO, cat. D2650), except for the platinum compounds which were prepared in saline (Quality Biological, Gaithersburg, MD, cat. 114-055-101), at 800-fold the tested concentration and stored at -70 degrees C prior to their use. All drugs and investigational agents were tested over a range starting from a high concentration at or near the clinical Cmax and decreasing in half-log increments. If the clinical Cmax for an agent had not been determined, the highest concentration tested was 10 microM (Table 1).
Cell Culture. All cells were maintained in an incubator at 37 degrees C and 5% CO2 with 95% humidity. The PDC lines were cultured according to standard operating procedures established by the NCI PDMR (https://pdmr.cancer.gov). Briefly, all PDCs were thawed and cultured in Matrigel-coated flasks prepared with a working solution of 1X Ham's F-12 nutrient mix, without supplementation (Invitrogen, Waltham, MA, cat. 11765054), 100 U/mL penicillin-streptomycin (Invitrogen, cat. 15140122), and 2.5% Matrigel (Corning Inc., Corning, NY, cat. 354248) for the first three passages. All PDCs were cultured in complete DMEM/F-12 media containing advanced DMEM/F-12 (Invitrogen, cat. 12634028), 4.9% defined fetal bovine serum, heat inactivated (HyClone Laboratories Inc., Logan, UT, cat. SH30070.03HI), 389 ng/mL hydrocortisone (Sigma-Aldrich, cat. H4001), 9.7 ng/mL human EGF recombinant protein (Invitrogen, cat. PHG0313), 23.4 microg/mL adenine (Sigma-Aldrich, cat. A2786), 97.3 U/mL penicillin-streptomycin (Invitrogen, cat. 15140122), 1.9 mM L-glutamine (Invitrogen, cat. 25030081), and 9.7 microM Y-27632 dihydrochloride (Tocris Bioscience, Bristol, United Kingdom, cat. 1254). The PDCs were cultured in complete DMEM/F12 media without 10 microM Y-27632 dihydrochloride for at least two passages prior to the screen. The established cell lines NCI-H1341 and […] were cultured in DMEM/F-12, HEPES (Invitrogen, cat. 11330032), 5% defined fetal bovine serum (HyClone Laboratories Inc., cat. SH30070.03), ITS premix universal culture supplement [insulin (5 microg/mL), transferrin (5 microg/mL), and selenious acid (5 ng/mL)] […]

[1] = curve of first compound, second compound 0.1 µM
[2] = curve of first compound, second compound 0.316 µM
[3] = curve of first compound, second compound 1 µM
[4] = curve of first compound, second compound 3.16 µM
[5] = curve of first compound, second compound 10 µM
[6] = second compound 0.1 µM, first compound 0.00316 µM
[7] = second compound 0.1 µM, first compound 0.01 µM
[8] = second compound 0.1 µM, first compound 0.0316 µM
[9] = second compound 0.1 µM, first compound 0.1 µM
[10] = second compound 0.316 µM, first compound 0.00316 µM
[11] = second compound 0.316 µM, first compound 0.01 µM
[12] = second compound 0.316 µM, first compound 0.0316 µM
[13] = second compound 0.316 µM, first compound 0.1 µM
[14] = second compound 1 µM, first compound 0.00316 µM
[15] = second compound 1 µM, first compound 0.01 µM
[16] = second compound 1 µM, first compound 0.0316 µM
[17] = second compound 1 µM, first compound 0.1 µM
[18] = second compound 3.16 µM, first compound 0.00316 µM
[19] = second compound 3.16 µM, first compound 0.01 µM
[20] = second compound 3.16 µM, first compound 0.0316 µM
[21] = second compound 3.16 µM, first compound 0.1 µM
[22] = second compound 10 µM, first compound 0.00316 µM
[23] = second compound 10 µM, first compound 0.01 µM
[24] = second compound 10 µM, first compound 0.0316 µM
[25] = second compound 10 µM, first compound 0.1 µM
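Also: spheroids exposed to agents for seven days before reading.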

- IC50 (curve of compound): > 100 nM
SMILES: Cn1ncnc1C1c2n[nH]c(=O)c3cc(F)cc(c23)NC1c1ccc(F)cc1 (centres undefined)
- viability, T/C (compound 0.000316 µM): 97.9% and 96.7% and 93.9%
- viability, T/C (compound 0.001 µM): 108% (2×) and 81%
- viability, T/C (compound 0.00316 µM): 108% and 106% and 97.9%
- viability, T/C (compound 0.01 µM): 102% and 109% and 99.2%
- viability, T/C (compound 0.0316 µM): 92.5% and 107% and 103%
- viability, T/C (compound 0.1 µM): 96.4% and 91.3% and 92.3%

- IC50 [1]: > 100 nM
- IC50 [2]: > 100 nM
- IC50 [3]: > 100 nM
- IC50 [4]: > 100 nM
- IC50 [5]: < 0.316 nM
SMILES: CC[C@@]1(O)C(=O)OCc2c1cc1n(c2=O)Cc2cc3c(CN(C)C)c(O)ccc3nc2-1 + Cc1cncc(-c2nc(NCCc3c[nH]c4ccccc34)c3ncn(C(C)C)c3n2)c1
- viability, T/C (second compound 0.1 µM, first compound 0.000316 µM): 101%
- viability, T/C (second compound 0.1 µM, first compound 0.001 µM): 94.2%
- viability, T/C [6]: 92.1%
- viability, T/C [7]: 94.6%
- viability, T/C [8]: 97.6%
- viability, T/C [9]: 92.6%
- viability, T/C (second compound 0.316 µM, first compound 0.000316 µM): 92.1%
- viability, T/C (second compound 0.316 µM, first compound 0.001 µM): 82.3%
- viability, T/C [10]: 84.4%
- viability, T/C [11]: 78.5%
- viability, T/C [12]: 101%
- viability, T/C [13]: 69.6%
- viability, T/C (second compound 1 µM, first compound 0.000316 µM): 84.1%
- viability, T/C (second compound 1 µM, first compound 0.001 µM): 76%
- viability, T/C [14]: 77.8%
- viability, T/C [15]: 70.3%
- viability, T/C [16]: 85.2%
- viability, T/C [17]: 68%
- viability, T/C (second compound 3.16 µM, first compound 0.000316 µM): 87.8%
- viability, T/C (second compound 3.16 µM, first compound 0.001 µM): 71.5%
- viability, T/C [18]: 91%
- viability, T/C [19]: 88.6%
- viability, T/C [20]: 83.3%
- viability, T/C [21]: 63.2%
- viability, T/C (second compound 10 µM, first compound 0.000316 µM): 8.54%
- viability, T/C (second compound 10 µM, first compound 0.001 µM): 8.37%
- viability, T/C [22]: 34.9%
- viability, T/C [23]: 24%
- viability, T/C [24]: 12.9%
- viability, T/C [25]: 16.9%

- IC50 (curve of compound): 784 nM and > 1000 nM and 642 nM
SMILES: CC1COCCN1c1cc(-c2ccnn2C)c2ccnc(-c3ccn[nH]3)c2n1 (centres undefined)
- viability, T/C (compound 0.00316 µM): 94.6% and 92.4% and 98.3%
- viability, T/C (compound 0.01 µM): 88.1% and 91.6% and 75%
- viability, T/C (compound 0.0316 µM): 91.3% and 96.4% and 105%
- viability, T/C (compound 0.1 µM): 89.3% and 82.8% and 95.2%
- viability, T/C (compound 0.316 µM): 75.3% and 74.5% and 69.8%
- viability, T/C (compound 1 µM): 43% and 64% and 37.5%

- IC50 [1]: 516 nM
- IC50 [2]: 609 nM
- IC50 [3]: 547 nM
- IC50 [4]: 650 nM
- IC50 [5]: 230 nM
SMILES: CC1COCCN1c1cc(-c2ccnn2C)c2ccnc(-c3ccn[nH]3)c2n1 (centres undefined) + CC(CO)NC(=O)c1cc(-c2ccc(Cl)cc2)nn(-c2cnn(C)c2)c1=O
- viability, T/C [6]: 97.6%
- viability, T/C [7]: 95.3%
- viability, T/C [8]: 89.1%
- viability, T/C [9]: 83.9%
- viability, T/C (second compound 0.1 µM, first compound 0.316 µM): 63%
- viability, T/C (second compound 0.1 µM, first compound 1 µM): 31.7%
- viability, T/C [10]: 90.3%
- viability, T/C [11]: 102%
- viability, T/C [12]: 90.3%
- viability, T/C [13]: 84.9%
- viability, T/C (second compound 0.316 µM, first compound 0.316 µM): 68.1%
- viability, T/C (second compound 0.316 µM, first compound 1 µM): 36.5%
- viability, T/C [14]: 106%
- viability, T/C [15]: 101%
- viability, T/C [16]: 97.9%
- viability, T/C [17]: 82.5%
- viability, T/C (second compound 1 µM, first compound 0.316 µM): 60.8%
- viability, T/C (second compound 1 µM, first compound 1 µM): 38.2%
- viability, T/C [18]: 81.9%
- viability, T/C [19]: 86.9%
- viability, T/C [20]: 87.2%
- viability, T/C [21]: 85.6%
- viability, T/C (second compound 3.16 µM, first compound 0.316 µM): 60.8%
- viability, T/C (second compound 3.16 µM, first compound 1 µM): 43.6%
- viability, T/C [22]: 83.3%
- viability, T/C [23]: 90%
- viability, T/C [24]: 80.8%
- viability, T/C [25]: 59%
- viability, T/C (second compound 10 µM, first compound 0.316 µM): 49%
- viability, T/C (second compound 10 µM, first compound 1 µM): 33.4%
